# In US20230248722A1, “CLOFAZIMINE COMPOSITION AND METHOD FOR THE TREATMENT OR PROPHYLAXIS OF VIRAL INFECTIONS” (priority 2020, published 2023):
# Tested on: SARS-CoV-2
# Format: cell-based
# Settings: in vitro; 2.5 μM (or ~1.2 μg clofazimine/ml)
structure (smiles),measurement,value
"CC(C)/N=c1\cc2n(-c3ccc(Cl)cc3)c3ccccc3nc-2cc1Nc1ccc(Cl)cc1 [clofazimine, N,5-bis(4-chlorophenyl)-3-propan-2-yliminophenazin-2-amine]",reduce or eliminate viral replication,40%
